In ChEMBL document CHEMBL3039007, “Structure-based identification of OATP1B1/3 inhibitors” (Mol Pharmacol, 2013) one finds residual activity data, which are given here for 39 compounds.

The structures appear in SMILES notation.

For data set [1], the target named is T1, Solute carrier organic anion transporter family member 1B1 (Homo sapiens, UniProt Q9Y6L6).
T1 sequence (Q9Y6L6 whole entry): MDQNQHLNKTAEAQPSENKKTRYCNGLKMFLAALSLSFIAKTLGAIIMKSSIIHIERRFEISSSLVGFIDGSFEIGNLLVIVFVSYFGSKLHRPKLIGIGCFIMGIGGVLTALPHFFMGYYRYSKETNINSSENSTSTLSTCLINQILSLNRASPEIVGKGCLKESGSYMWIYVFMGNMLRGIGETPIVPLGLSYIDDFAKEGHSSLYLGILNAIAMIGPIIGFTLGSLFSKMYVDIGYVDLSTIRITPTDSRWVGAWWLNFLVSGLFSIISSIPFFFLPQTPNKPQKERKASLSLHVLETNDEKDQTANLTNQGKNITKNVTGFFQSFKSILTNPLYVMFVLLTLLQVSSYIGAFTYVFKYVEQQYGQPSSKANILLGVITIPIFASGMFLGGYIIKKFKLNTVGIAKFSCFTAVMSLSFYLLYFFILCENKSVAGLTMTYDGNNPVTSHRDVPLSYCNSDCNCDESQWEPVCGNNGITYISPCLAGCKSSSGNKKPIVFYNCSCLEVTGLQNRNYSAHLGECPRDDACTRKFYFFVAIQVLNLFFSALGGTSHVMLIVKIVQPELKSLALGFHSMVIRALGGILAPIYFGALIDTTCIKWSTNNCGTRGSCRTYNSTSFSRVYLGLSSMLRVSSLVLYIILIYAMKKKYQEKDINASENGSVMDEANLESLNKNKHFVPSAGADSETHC
To be noted: chinese hamster, cho, 10 µM.

Data set [2] addresses T2, Solute carrier organic anion transporter family member 1B3 (Homo sapiens, UniProt Q9NPD5).
T2 sequence (Q9NPD5 whole entry): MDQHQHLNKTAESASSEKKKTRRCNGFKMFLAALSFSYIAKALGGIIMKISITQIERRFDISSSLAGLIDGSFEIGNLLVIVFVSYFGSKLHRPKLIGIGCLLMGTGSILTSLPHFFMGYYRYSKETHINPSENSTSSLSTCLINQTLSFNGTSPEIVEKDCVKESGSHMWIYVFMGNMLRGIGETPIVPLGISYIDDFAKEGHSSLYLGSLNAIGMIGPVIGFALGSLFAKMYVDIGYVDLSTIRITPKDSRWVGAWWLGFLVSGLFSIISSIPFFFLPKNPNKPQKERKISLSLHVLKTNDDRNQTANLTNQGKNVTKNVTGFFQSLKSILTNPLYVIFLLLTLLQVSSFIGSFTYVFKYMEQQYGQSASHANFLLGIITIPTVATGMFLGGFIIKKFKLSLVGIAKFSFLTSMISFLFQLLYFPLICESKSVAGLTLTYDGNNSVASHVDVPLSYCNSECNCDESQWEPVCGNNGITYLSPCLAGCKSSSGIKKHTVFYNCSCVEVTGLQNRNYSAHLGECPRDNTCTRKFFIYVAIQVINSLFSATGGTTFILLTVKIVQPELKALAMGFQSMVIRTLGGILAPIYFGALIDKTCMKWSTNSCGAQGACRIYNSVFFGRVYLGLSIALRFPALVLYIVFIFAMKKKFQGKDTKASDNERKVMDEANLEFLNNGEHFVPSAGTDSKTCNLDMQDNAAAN
To be noted: chinese hamster, cho, 10 µM.

By residual activity is commonly meant the signal under treatment as a percentage of the control signal. Consider `Cc1ccsc1/C=C/C1=NCCCN1C.O=C(O)CC(O)(CC(=O)O)C(=O)O` [MORANTEL CITRATE], for which the figures for the residual activity in data set [1] and in data set [2] were 115.3% and 103.6%, respectively.
On the same counts, the results for `O=c1c(O)c(-c2ccc(O)cc2O)oc2cc(O)cc(O)c12` [MORIN] are 24.17% and 45.37%.
The corresponding values for `CO[C@@]1(NC(=O)C(C(=O)[O-])c2ccc(O)cc2)C(=O)N2C(C(=O)[O-])=C(CSc3nnnn3C)CO[C@@H]21.[Na+].[Na+]` (stereo partly drawn) [MOXALACTAM DISODIUM] are 87.94% and 92.91%.
`COc1c(N2C[C@@H]3CCCN[C@@H]3C2)c(F)cc2c(=O)c(C(=O)O)cn(C3CC3)c12.Cl` [MOXIFLOXACIN HYDROCHLORIDE]: the residual activity in data set [1] was found to be 106%; in data set [2] it was 94.01%.
For the compound `O=C(O)[C@@H](O)[C@H](O)[C@H](O)[C@@H](O)C(=O)O` [MUCIC ACID], the values for the residual activity in data set [1] and in data set [2] were 109% and 98.98%, respectively.
On the same counts, the results for `COc1ccc2c(c1)O[C@@H]1COc3cc(OC)c(OC)cc3[C@@H]1C2=O` [MUNDOSERONE] are 118.1% and 110.7%.
The corresponding values for `COc1c(-c2coc3cc4c(cc3c2=O)CC(OC(C)=O)C(C)(C)O4)ccc2c1C=CC(C)(C)O2` (stereo not drawn) [MUNDULONE ACETATE] are 71.78% and 87.47%.
For `COc1c(-c2coc3cc4c(cc3c2=O)CC(O)C(C)(C)O4)ccc2c1C=CC(C)(C)O2` (stereo not drawn) [MUNDULONE], the figures for the residual activity in data set [1] and in data set [2] were 31.23% and 45.15%, respectively.
The corresponding values for `CC1=CC2C(CC1=O)C(C)=CCC2C(C)C` (stereo not drawn) [MUUROLLADIE-3-ONE] are 267.7% and 117.6%.
Turning to `COc1c(C)c2c(c(O)c1C/C=C(\C)CCC(=O)O)C(=O)OC2` [MYCOPHENOLIC ACID], the residual activity came out at 106.8% in data set [1] and 100.1% in data set [2].
The corresponding values for `N=C(N)NC(=O)c1nc(Cl)c(N2CCCCCC2)nc1N` [N,N-HEXAMETHYLENEAMILORIDE] are 122.5% and 162.9%.
The corresponding values for `Cl.FC(F)(F)c1cccc(N2CCNCC2)c1` [N- (3-TRIFLUOROMETHYLPHENYL)PIPERAZINE HYDROCHLORIDE (TFMPP)] are 106.1% and 80.23%.
On the same counts, the results for `CC(=O)N[C@@H]1[C@@H](O)[C@H](O)[C@@H](CO)O[C@H]1O` [N-ACETYLGLUCOSAMINE] are 48.98% and 82.99%.
In the case of `CC(=O)N1CCCC1C(=O)O` (stereo not drawn) [N-ACETYLPROLINE], the residual activity is 88.69% in data set [1] and 109.9% in data set [2].
On to `O[C@@H]1C[C@H]2CCC[C@@H](C1)N2Cc1ccccc1` [N-BENZYLTROPAN-4-OL], for which the residual activity in data set [1] is on record as 92.31%; in data set [2], 88.98%.
With `CSCCC(NC=O)C(=O)NC(C)C(=O)O` (stereo not drawn) [N-FORMYLMETHIONYLALANINE], the residual activity in data set [1] is on record as 100.9%; in data set [2], 108.8%.
With `O=C(NCO)c1cccnc1` [N-HYDROXYMETHYLNICOTINAMIDE], the residual activity in data set [1] is reported as 121.9%; in data set [2] it was 92.24%.
The corresponding values for `CN[C@H](CC(=O)O)C(=O)O` [N-METHYL-D-ASPARTIC ACID (NMDA)] are 101.6% and 98.22%.
The corresponding values for `COc1ccc2cc(CCC(C)=O)ccc2c1` [NABUMETONE] are 203% and 110.7%.
The corresponding values for `NC(=O)c1ccc[n+]([C@@H]2O[C@H](COP(=O)([O-])OP(=O)(O)OC[C@H]3O[C@@H](n4cnc5c(N)ncnc54)[C@H](O)[C@@H]3O)[C@@H](O)[C@H]2O)c1` [NADIDE] are 99.44% and 115.4%.
With `CC(C)(C)NCC(O)COc1cccc2c1CC(O)C(O)C2` (stereo not drawn) [NADOLOL], the residual activity in data set [1] is given as 76.36%; in data set [2], 86.47%.
Regarding `CCOc1ccc2ccccc2c1C(=O)N[C@@H]1C(=O)N2[C@@H]1SC(C)(C)[C@@H]2C(=O)[O-].O.[Na+]` [NAFCILLIN SODIUM], the residual activity in data set [1] was found to be 74.51%; in data set [2] it was 114.4%.
The corresponding values for `CCN(CC)CCOC(=O)C(Cc1cccc2ccccc12)CC1CCCO1.O=C(O)C(=O)O` (stereo not drawn) [NAFRONYL OXALATE] are 74.24% and 116.5%.
On the same counts, the results for `Cl.Oc1ccc2c3c1O[C@H]1[C@@H](O)CC[C@@]4(O)[C@@H](C2)N(CC2CCC2)CC[C@]314` [NALBUPHINE HYDROCHLORIDE] are 86.64% and 96.59%.
On the same counts, the results for `COP(=O)(OC)OC(Br)C(Cl)(Cl)Br` (stereo not drawn) [NALED] are 82.68% and 110%.
On to `CCn1cc(C(=O)O)c(=O)c2ccc(C)nc21` [NALIDIXIC ACID], for which the residual activity in data set [1] was 63.37%; in data set [2] it was 81.71%.
For `C=CCN1CC[C@]23c4c5ccc(O)c4O[C@H]2C(=O)CC[C@@]3(O)[C@H]1C5.Cl` [NALOXONE HYDROCHLORIDE], the residual activity in data set [1] is given as 111.5%; in data set [2] it was 113.7%.
On the same counts, the results for `Cl.O=C1CC[C@@]2(O)[C@H]3Cc4ccc(O)c5c4[C@@]2(CCN3CC2CC2)[C@H]1O5` [NALTREXONE HYDROCHLORIDE] are 71.98% and 86.99%.
The corresponding values for `Cl.c1ccc2c(CC3=NCCN3)cccc2c1` [NAPHAZOLINE HYDROCHLORIDE] are 100.7% and 95.85%.
On the same counts, the results for `COc1ccc2cc([C@H](C)CO)ccc2c1` [NAPROXOL] are 241.9% and 102.8%.
Regarding `O=C1C[C@@H](c2ccc(O)cc2)Oc2cc(O)cc(O)c21` [NARINGENIN], the residual activity in data set [1] was found to be 96.26%; in data set [2], 95.55%.
The corresponding values for `C[C@@H]1O[C@@H](O[C@H]2[C@H](Oc3cc(O)c4c(c3)O[C@H](c3ccc(O)cc3)CC4=O)O[C@H](CO)[C@@H](O)[C@@H]2O)[C@H](O)[C@H](O)[C@H]1O` [NARINGIN] are 100.1% and 137.8%.
The corresponding values for `CC(C)[C@H]1CC[C@H](C(=O)N[C@H](Cc2ccccc2)C(=O)O)CC1` [NATEGLINIDE] are 99.81% and 70.33%.
Regarding `CN1CCOC(c2ccccc2)c2ccccc2C1` (stereo not drawn) [NEFOPAM], the values for the residual activity in data set [1] and in data set [2] were 102.9% and 100.9%, respectively.
The corresponding values for `COc1ccc(CCC(=O)c2c(O)cc(O[C@@H]3O[C@H](CO)[C@@H](O)[C@H](O)[C@H]3O[C@@H]3O[C@@H](C)[C@H](O)[C@@H](O)[C@H]3O)cc2O)cc1O` [NEOHESPERIDIN DIHYDROCHALCONE] are 53.61% and 198.2%.
On the same counts, the results for `CN(C)C(=O)Oc1cccc([N+](C)(C)C)c1.[Br-]` [NEOSTIGMINE BROMIDE] are 95.12% and 101.1%.
On the same counts, the results for `CO[C@H]1[C@H](O)[C@H](O[C@H]2CC[C@@]3(C)[C@H](CC[C@@H]4[C@@H]3CC[C@]3(C)[C@@H](C5=CC(=O)OC5)CC[C@]43O)C2)O[C@@H](C)[C@@H]1O` [NERIIFOLIN] are 95.6% and 148.8%.
As for `C=CC(C)(O)CC/C=C(\C)CCC=C(C)C` (stereo not drawn) [NEROLIDOL], the residual activity amounted to 147.7% in data set [1] and 131.1% in data set [2].
On the same counts, the results for `O=C(O)c1cccnc1` [NIACIN] are 124.4% and 89.89%.
